Measurements reported in patent publication US9469650B2, “Melampomagnolide B derivatives” (BOARD OF TRUSTEES OF THE UNIVERSITY OF ARKANSAS, priority 2013, dated 2016).

How the values were obtained:
[1] = tested on: HCT-15; assay: panel of 60 human tumor cell lines, growth inhibition (Colon Cancer); details: Homo sapiens; for GI50: HCT-15; for CC50: HCT-15, read-out: LC50; for IC (TGI): HCT-15, read-out: TGI
[2] = tested on: MDA-MB-468; assay: panel of 60 human tumor cell lines, growth inhibition (Breast Cancer); details: Homo sapiens; for GI50: MDA-MB-468; for CC50: MDA-MB-468, read-out: LC50; for IC (TGI): MDA-MB-468, read-out: TGI
[3] = tested on: SK-MEL-5; assay: panel of 60 human tumor cell lines, growth inhibition (Melanoma); details: Homo sapiens; for GI50: SK-MEL-5; for CC50: SK-MEL-5, read-out: LC50; for IC (TGI): SK-MEL-5, read-out: TGI
[4] = tested on: NCI-H522; assay: panel of 60 human tumor cell lines, growth inhibition (Non-Small Cell Lung Cancer); details: Homo sapiens; for GI50: NCI-H522; for CC50: NCI-H522, read-out: LC50; for IC (TGI): NCI-H522, read-out: TGI
[5] = tested on: HOP-92; assay: as above; details: Homo sapiens; for CC50: HOP-92, read-out: LC50; for IC (TGI): HOP-92, read-out: TGI
[6] = tested on: RXF 393; assay: panel of 60 human tumor cell lines, growth inhibition (Renal Cancer); details: Homo sapiens; for CC50: RXF 393, read-out: LC50; for IC (TGI): RXF 393, read-out: TGI
[7] = tested on: TK-10; assay: as above; details: Homo sapiens; for CC50: TK-10, read-out: LC50; for IC (TGI): TK-10, read-out: TGI
[8] = tested on: IGROV1; assay: panel of 60 human tumor cell lines, growth inhibition (Ovarian Cancer); details: Homo sapiens; for GI50: IGROV-1; for CC50: IGROV-1, read-out: LC50; for IC (TGI): IGROV-1, read-out: TGI
[9] = tested on: OVCAR-3; assay: as above; details: for GI50 / CC50 / IC (TGI): Homo sapiens; for GI50 / Percent Growth: OVCAR-3; for CC50: OVCAR-3, read-out: LC50; for IC (TGI): OVCAR-3, read-out: TGI
[10] = tested on: NCI-H23; assay: panel of 60 human tumor cell lines, growth inhibition (Non-Small Cell Lung Cancer); details: Homo sapiens; for GI50: NCI-H23; for CC50: NCI-H23, read-out: LC50; for IC (TGI): NCI-H23, read-out: TGI
[11] = tested on: CCRF-CEM; assay: panel of 60 human tumor cell lines, growth inhibition (Leukemia); details: Homo sapiens; for CC50: read-out: LC50; for IC (TGI): read-out: TGI
[12] = tested on: MCF7; assay: panel of 60 human tumor cell lines, growth inhibition (Breast Cancer); details: Homo sapiens; for CC50: MCF7, read-out: LC50; for IC (TGI): MCF7, read-out: TGI
[13] = tested on: OVCAR-8; assay: panel of 60 human tumor cell lines, growth inhibition (Ovarian Cancer); details: Homo sapiens; for GI50: OVCAR-8; for CC50: OVCAR-8, read-out: LC50; for IC (TGI): OVCAR-8, read-out: TGI
[14] = tested on: COLO 205; assay: panel of 60 human tumor cell lines, growth inhibition (Colon Cancer); details: Homo sapiens; for GI50: COLO 205; for CC50: COLO 205, read-out: LC50; for IC (TGI): COLO 205, read-out: TGI
[15] = tested on: A549/ATCC; assay: panel of 60 human tumor cell lines, growth inhibition (Non-Small Cell Lung Cancer); details: Homo sapiens; for GI50: A549; for CC50: A549, read-out: LC50; for IC (TGI): A549, read-out: TGI
[16] = tested on: BT-549; assay: panel of 60 human tumor cell lines, growth inhibition (Breast Cancer); details: Homo sapiens; for GI50: BT-549; for CC50: BT-549, read-out: LC50; for IC (TGI): BT-549, read-out: TGI
[17] = tested on: SK-OV-3; assay: panel of 60 human tumor cell lines, growth inhibition (Ovarian Cancer); details: Homo sapiens; for GI50: SK-OV-3; for CC50: SK-OV-3, read-out: LC50; for IC (TGI): SK-OV-3, read-out: TGI

C=C1C(=O)O[C@H]2[C@H]1CC/C(COC(=O)NCCN1CCOCC1)=C\CC[C@@]1(C)O[C@@H]21 [JVM 57, ((1aR,7aS,10aS,10bS,E)-1a-methyl-8-methylene-9-oxo-1a,2,3,6,7,7a,8,9,10a,10b-decahydrooxireno[2′,3′:9,10]-cyclodeca[1,2-b]furan-5-yl)-methyl(2-morpholinoethyl)carbamate]
GI50 [1]: 10.5 µM | CC50 [1]: > 100 µM | IC (TGI) [1]: 34.4 µM | GI50 [2]: 3.26 µM | CC50 [2]: 59.1 µM | IC (TGI) [2]: 14.6 µM | GI50 [3]: 12.7 µM | CC50 [3]: 50.9 µM | IC (TGI) [3]: 25.4 µM | GI50 [4]: 2.13 µM | CC50 [4]: 31.8 µM | IC (TGI) [4]: 5.88 µM | GI50 ([5]; HOP-92, HOP-92): 2.3 µM | GI50 ([5]; HOP-92, HOP-92, 5-dose assay): 2.3 µM | CC50 [5]: 33.7 µM | IC (TGI) [5]: 8.61 µM | GI50 ([6]; RXF 393, RXF 393): 3 µM | GI50 ([6]; RXF 393, RXF 393, 5-dose assay): 3 µM | CC50 [6]: 41 µM | IC (TGI) [6]: 11.9 µM | GI50 ([7]; TK-10, TK-10): 3.93 µM | GI50 ([7]; TK-10, TK-10, 5-dose assay): 3.93 µM | CC50 [7]: 38.9 µM | IC (TGI) [7]: 13.9 µM | GI50 [8]: 3.49 µM | CC50 [8]: 58.6 µM | IC (TGI) [8]: 14.6 µM | GI50 [9]: 6.2 µM | CC50 [9]: 44.1 µM | IC (TGI) [9]: 18.7 µM | Percent Growth ([9]; Log10 Concentration −4.0): −98% | Percent Growth ([9]; Log10 Concentration −5.0): 37% | Percent Growth ([9]; Log10 Concentration −6.0): 101% | Percent Growth ([9]; Log10 Concentration −7.0): 109% | Percent Growth ([9]; Log10 Concentration −8.0): 109% | GI50 [10]: 15.8 µM | CC50 [10]: 84.3 µM | IC (TGI) [10]: 36.5 µM | GI50 [11]: 3.03 µM | GI50 ([11]; 5-dose assay): 3.03 µM | CC50 [11]: ≥ 109 µM | IC (TGI) [11]: 11.6 µM | GI50 ([12]; MCF7, MCF7): 3.54 µM | GI50 ([12]; MCF7, MCF7, 5-dose assay): 3.54 µM | CC50 [12]: 53.1 µM | IC (TGI) [12]: 14.4 µM | GI50 [13]: 12.7 µM | CC50 [13]: > 100 µM | IC (TGI) [13]: 36.8 µM | GI50 [14]: 8.89 µM | CC50 [14]: 71.6 µM | IC (TGI) [14]: 25.9 µM | GI50 [15]: 28.5 µM | CC50 [15]: > 100 µM | IC (TGI) [15]: > 100 µM | GI50 [16]: 4.99 µM | CC50 [16]: 49.3 µM | IC (TGI) [16]: 17.6 µM | GI50 [17]: 48.5 µM | CC50 [17]: > 100 µM | IC (TGI) [17]: > 100 µM

C=C1C(=O)O[C@H]2[C@H]1CC/C(COC(=O)NCCN1CCCC1)=C\CC[C@@]1(C)O[C@@H]21 [JVM 59, ((1aR,7aS,10aS,10bS,E)-1a-methyl-8-methylene-9-oxo-1a,2,3,6,7,7a,8,9,10a,10b-decahydrooxireno[2′,3′:9,10]cyclodeca[1,2-b]furan-5-yl)methyl-(2-(pyrrolidin-1-yl)ethyl)carbamate]
GI50 [1]: 13.5 µM | CC50 [1]: 91.2 µM | IC (TGI) [1]: 35.1 µM | GI50 [2]: 2.3 µM | CC50 [2]: 42.9 µM | IC (TGI) [2]: 9.06 µM | GI50 [3]: 15.5 µM | CC50 [3]: 55.1 µM | IC (TGI) [3]: 29.2 µM | GI50 [4]: 1.78 µM | CC50 [4]: 32.2 µM | IC (TGI) [4]: 5.05 µM | GI50 ([5]; HOP-92, HOP-92, five dose): 2.25 µM | GI50 ([5]; HOP-92, HOP-92, 5-dose assay): 2.25 µM | CC50 [5]: 32.3 µM | IC (TGI) [5]: 7.86 µM | GI50 ([6]; RXF 393, RXF 393, five dose): 4.08 µM | GI50 ([6]; RXF 393, RXF 393, 5-dose assay): 4.08 µM | CC50 [6]: 47.9 µM | IC (TGI) [6]: 16.8 µM | GI50 ([7]; TK-10, TK-10, five dose): 3.11 µM | GI50 ([7]; TK-10, TK-10, 5-dose assay): 3.11 µM | CC50 [7]: 40.2 µM | IC (TGI) [7]: 14.1 µM | GI50 [8]: 4.09 µM | CC50 [8]: 68.5 µM | IC (TGI) [8]: 16.2 µM | GI50 [9]: 8.41 µM | CC50 [9]: 46.4 µM | IC (TGI) [9]: 20.8 µM | Percent Growth ([9]; Log10 Concentration −4.0): −98% | Percent Growth ([9]; Log10 Concentration −5.0): 46% | Percent Growth ([9]; Log10 Concentration −6.0): 102% | Percent Growth ([9]; Log10 Concentration −7.0): 100% | Percent Growth ([9]; Log10 Concentration −8.0): 101% | GI50 [10]: 16.4 µM | CC50 [10]: 80.4 µM | IC (TGI) [10]: 36.3 µM | GI50 ([11]; 5-dose assay): 2.49 µM | GI50 ([11]; five dose): 2.49 µM | CC50 [11]: 64.3 µM | IC (TGI) [11]: 9.12 µM | GI50 ([12]; MCF7, MCF7, five dose): 3.91 µM | GI50 ([12]; MCF7, MCF7, 5-dose assay): 3.91 µM | CC50 [12]: 63.7 µM | IC (TGI) [12]: 17.1 µM | GI50 [13]: 13.4 µM | CC50 [13]: 72.2 µM | IC (TGI) [13]: 31.1 µM | GI50 [14]: 4.78 µM | CC50 [14]: 45 µM | IC (TGI) [14]: 16.8 µM | GI50 [15]: 27.6 µM | CC50 [15]: > 100 µM | IC (TGI) [15]: 96.5 µM | GI50 [16]: 4.75 µM | CC50 [16]: 45 µM | IC (TGI) [16]: 18.6 µM | GI50 [17]: 29.4 µM | CC50 [17]: > 100 µM | IC (TGI) [17]: > 100 µM
